# From ChEMBL document CHEMBL4732143 (Eur J Med Chem, 2021)
# Target: T1, Sphingosine kinase 2 (Homo sapiens) (UniProt Q9NRA0)
# T1 sequence (whole entry): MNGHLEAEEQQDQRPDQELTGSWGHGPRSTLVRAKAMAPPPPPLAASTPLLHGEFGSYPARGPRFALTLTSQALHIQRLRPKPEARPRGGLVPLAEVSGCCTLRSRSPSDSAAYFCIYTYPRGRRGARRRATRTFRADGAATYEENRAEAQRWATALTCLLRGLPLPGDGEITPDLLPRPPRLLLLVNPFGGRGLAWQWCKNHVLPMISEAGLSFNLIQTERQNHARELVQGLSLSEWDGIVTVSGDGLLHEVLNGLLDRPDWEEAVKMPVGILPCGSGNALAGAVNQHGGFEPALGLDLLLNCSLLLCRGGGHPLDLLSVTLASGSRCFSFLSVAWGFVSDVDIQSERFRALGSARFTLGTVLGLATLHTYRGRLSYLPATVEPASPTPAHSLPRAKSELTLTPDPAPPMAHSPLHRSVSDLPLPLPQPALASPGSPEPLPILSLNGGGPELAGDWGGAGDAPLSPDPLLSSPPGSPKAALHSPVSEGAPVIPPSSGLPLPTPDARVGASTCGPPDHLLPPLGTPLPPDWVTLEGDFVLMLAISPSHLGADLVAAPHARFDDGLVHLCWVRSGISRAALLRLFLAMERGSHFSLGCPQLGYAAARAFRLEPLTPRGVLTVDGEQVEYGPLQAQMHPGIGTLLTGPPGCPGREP
# Experiment: Inhibition of recombinant human Sphk2 expressed in baculovirus infected Sf9 insect cells assessed as residual activity at 0.3 uM using d-erythro-sphingosine as substrate measured after 20 mins in presence of [gamma-32P]ATP by liquid scintillation counting analysis relative to control
# Conditions: not given
row,SMILES,Activity [%]
1,CCCCCCCCCn1ccc2cc(-c3noc([C@@H]4CCCN4C(=N)N)n3)ccc21,25
2,CCCCCCCCn1ccc2cc(-c3noc([C@@H]4CCCN4C(=N)N)n3)ccc21,87
3,CCCCCCn1ccc2cc(-c3noc([C@@H]4CCCN4C(=N)N)n3)ccc21,72
4,CCCCCCCCCn1cc(-c2noc([C@@H]3CCCN3C(=N)N)n2)c2ccccc21,59
5,CCCCCCCCCCCCn1cc(-c2noc([C@@H]3CCCN3C(=N)N)n2)c2ccccc21,46
6,CCCCCCCn1cc(-c2noc([C@@H]3CCCN3C(=N)N)n2)c2ccccc21,96
7,CCCCCCCCCCn1ccc2ccc(-c3noc([C@@H]4CCCN4C(=N)N)n3)cc21,68
8,CCCCCCCn1ccc2c(-c3noc([C@@H]4CCCN4C(=N)N)n3)cccc21,89
9,CCCCCCCCn1ccc2ccc(-c3noc([C@@H]4CCCN4C(=N)N)n3)cc21,93
10,CCCCOc1ccc2cc(-c3noc([C@@H]4CCCN4C(=N)N)n3)ccc2c1,95
11,CCCCCCCCCCn1ccc2c(-c3noc([C@@H]4CCCN4C(=N)N)n3)cccc21,64
12,CCCCCCCCCCn1cc(-c2noc([C@@H]3CCCN3C(=N)N)n2)c2ccccc21,47
13,CCCCCCCCCn1cc(-c2noc(C[C@@H]3CCCN3C(=N)N)n2)c2ccccc21,98
14,CCCCCCCCn1ccc2c(-c3noc([C@@H]4CCCN4C(=N)N)n3)cccc21,84
15,CCCCCCCCn1cc(-c2noc([C@@H]3CCCN3C(=N)N)n2)c2ccccc21,73
16,CCCCCCCn1ccc2ccc(-c3noc([C@@H]4CCCN4C(=N)N)n3)cc21,103
17,CCCCCCCn1ccc2cc(-c3noc([C@@H]4CCCN4C(=N)N)n3)ccc21,93
18,CCCCCCCCCn1ccc2c(-c3noc([C@@H]4CCCN4C(=N)N)n3)cccc21,68
19,CCCCCCCCCCn1ccc2cc(-c3noc([C@@H]4CCCN4C(=N)N)n3)ccc21,31
20,CCCCCCCCCCCn1cc(-c2noc([C@@H]3CCCN3C(=N)N)n2)c2ccccc21,79
21,CCCCCCCCCn1ccc2ccc(-c3noc([C@@H]4CCCN4C(=N)N)n3)cc21,79

# Target: T2, Sphingosine kinase 2 (Homo sapiens, UniProt Q9NRA0)
# T2 sequence (Q9NRA0 whole entry): T1 sequence (whole entry)
# Experiment: Inhibition of recombinant human Sphk2 expressed in baculovirus infected Sf9 insect cells using d-erythro-sphingosine as substrate measured after 20 mins in presence of [gamma-32P]ATP by liquid scintillation counting analysis
# Conditions: not given
row,SMILES,Ki [nM]
1,CCCCCCCCCn1ccc2cc(-c3noc([C@@H]4CCCN4C(=N)N)n3)ccc21,90
2,CCCCCCCCCCCCn1cc(-c2noc([C@@H]3CCCN3C(=N)N)n2)c2ccccc21,290
3,CCCCOc1ccc2cc(-c3noc([C@@H]4CCCN4C(=N)N)n3)ccc2c1,980
4,CCCCCCCCCCn1cc(-c2noc([C@@H]3CCCN3C(=N)N)n2)c2ccccc21,300
5,CCCCCCCCCCn1ccc2cc(-c3noc([C@@H]4CCCN4C(=N)N)n3)ccc21,120

# Target: T1, Sphingosine kinase 2 (Homo sapiens)
# Experiment: Inhibition of Sphk2 in human U-937 cells using FTY720 as substrate measured after 2 hrs by LC-MS analysis
# Assay type: cell-based
# Conditions: dose 0.1-1 µM
row,SMILES,inhibition
1,CCCCCCCCCn1ccc2cc(-c3noc([C@@H]4CCCN4C(=N)N)n3)ccc21,Dose-dependent effect

# Target: T1, Sphingosine kinase 2 (Homo sapiens)
# Experiment: Inhibition of recombinant human Sphk2 expressed in yeast strain KYA1 assessed as increase in yeast growth measured after 24 hrs
# Conditions: not given
row,SMILES,inhibition
1,CCCCCCCCCn1ccc2cc(-c3noc([C@@H]4CCCN4C(=N)N)n3)ccc21,Dose-dependent effect
